Data taken from publication PMC11995724, “Antibiotic target discovery by integrated phenotypic and activity-based profiling of electrophilic fragments” (Cell chemical biology, 2025).
Counter-ions that a name gives are not always drawn.

Assay: in vitro
Conditions: human, hek293t cells

Point of comparison: `C=CC(=O)NCc1cn(C)c2ccccc12` [1-G21, N-[(1-methyl-1H-indol-3-yl)methyl]prop-2-enamide], viability at 48 h, 25 µM 107%. Against it:
- CC(Cl)C(=O)NCC(=O)Nc1ccc2c[nH]nc2c1 (centres unmarked) [7-N11, 2-chloro-N-{[(2H-indazol-6-yl)carbamoyl]methyl}propanamide] — lower, 97%
- C=CC(=O)N1CCC(Cc2nc(CC)no2)CC1 [3-A11, 1-{4-[(3-ethyl-1,2,4-oxadiazol-5-yl)methyl]piperidin-1-yl}prop-2-en-1-one] — lower, 60.7%
- CCc1ccc(-c2nn(-c3ccccc3)cc2C=C(C#N)C(N)=O)cc1 [8-O22, 2-cyano-3-[3-(4-ethylphenyl)-1-phenyl-1H-pyrazol-4-yl]prop-2-enamide] — lower, 70.6%
- N#CCCN(C(=O)CCl)c1cccc(Cl)c1 [6-A17, 2-chloro-N-(3-chlorophenyl)-N-(2-cyanoethyl)acetamide] — lower, -0.154%
- CC(C)NC(=O)C(C#N)=Cc1cccc2ccccc12 [8-P06, 2-cyano-3-(naphthalen-1-yl)-N-(propan-2-yl)prop-2-enamide] — lower, 103%
- C=CC(=O)N(Cc1ccc(-n2cncn2)cc1)C1CC1 [3-J11, N-cyclopropyl-N-{[4-(1H-1,2,4-triazol-1-yl)phenyl]methyl}prop-2-enamide] — lower, 40.7%
- N#CC(=Cc1cn(-c2ccccc2)nc1-c1ccccc1Cl)C(N)=O [8-N18, 3-[3-(2-chlorophenyl)-1-phenyl-1H-pyrazol-4-yl]-2-cyanoprop-2-enamide] — lower, 91.5%
- COc1ccc(S(=O)(=O)N2CCCCC2)cc1NC(=O)CCl [6-G13, 2-chloro-N-[2-methoxy-5-(piperidine-1-sulfonyl)phenyl]acetamide] — lower, 1.34%
- C=CC(=O)Nc1ccc(C(=O)Nc2ccc(N3CCOCC3)nc2)cc1 [1-K15, N-[6-(morpholin-4-yl)pyridin-3-yl]-4-(prop-2-enamido)benzamide] — lower, 1.79%
- C=CC(=O)NCc1nc2c(s1)CCCC2 [1-G18, N-[(4,5,6,7-tetrahydro-1,3-benzothiazol-2-yl)methyl]prop-2-enamide] — lower, 95.8%
- O=C(CCl)Nc1ccccn1 [5-B14, 2-chloro-N-(pyridin-2-yl)acetamide hydrochloride] — lower, 73.1%
- CN(Cc1cc(-c2ccccc2)[nH]n1)C(=O)CCl [5-D15, 2-chloro-N-methyl-N-[(5-phenyl-1H-pyrazol-3-yl)methyl]acetamide] — lower, 0.109%
- COc1ccc(Cc2cnc(NC(=O)CCl)s2)cc1 [4-F17, 2-chloro-N-{5-[(4-methoxyphenyl)methyl]-1,3-thiazol-2-yl}acetamide] — lower, -0.0636%
- CC(=O)Nc1ccc(C2=NN(C(=O)CCl)C(c3ccco3)C2)cc1 (centres unmarked) [4-G22, N-{4-[1-(2-chloroacetyl)-5-(furan-2-yl)-4,5-dihydro-1H-pyrazol-3-yl]phenyl}acetamide] — lower, 0.156%
- Cc1cc(C2(NC(=O)C(C)Cl)CCOCC2)on1 (centres unmarked) [7-O13, 2-chloro-N-[4-(3-methyl-1,2-oxazol-5-yl)oxan-4-yl]propanamide] — lower, 95.5%
- CC(Cl)C(=O)Nc1ccccc1C(N)=O (centres unmarked) [5-G05, 2-(2-chloropropanamido)benzamide] — lower, 101%
- O=C1C=CC(=O)N1c1cc(C(F)(F)F)ccc1Cl [10-G09, 1-[2-chloro-5-(trifluoromethyl)phenyl]-2,5-dihydro-1H-pyrrole-2,5-dione] — lower, 58.9%
- Cc1c(C=C(C#N)C(=O)Nc2nccs2)cc(C#N)n1C [8-B18, 2-cyano-3-(5-cyano-1,2-dimethyl-1H-pyrrol-3-yl)-N-(1,3-thiazol-2-yl)prop-2-enamide] — lower, 94.1%
- C=CC(=O)N1CCC(F)CC1 [1-D14, 1-(4-fluoropiperidin-1-yl)prop-2-en-1-one] — lower, 69.9%
- C=CC(=O)N1CCC(c2nc3ccccc3o2)CC1 [1-N18, 1-[4-(1,3-benzoxazol-2-yl)piperidin-1-yl]prop-2-en-1-one] — lower, 80.1%
- Cn1cc(C=C(C#N)C(=O)Nc2ccc(Oc3ccccc3)cc2)cn1 [9-M10, 2-cyano-3-(1-methyl-1H-pyrazol-4-yl)-N-(4-phenoxyphenyl)prop-2-enamide] — higher, 109%
- COc1cc(Cl)c(C)cc1NC(=O)C(C#N)=Cc1c(C)n[nH]c1C [8-K10, N-(4-chloro-2-methoxy-5-methylphenyl)-2-cyano-3-(3,5-dimethyl-1H-pyrazol-4-yl)prop-2-enamide] — lower, 83.6%
- O=C(CCl)N1CCN(C(=O)CC(F)(F)F)CC1 [5-A08, 1-[4-(2-chloroacetyl)piperazin-1-yl]-3,3,3-trifluoropropan-1-one] — lower, 0.522%
- C=CC(=O)NC1CCN(c2nnnn2C)CC1 [3-G06, N-[1-(1-methyl-1H-1,2,3,4-tetrazol-5-yl)piperidin-4-yl]prop-2-enamide] — lower, 79.8%
- CSc1ccc(C(=O)CCl)cc1 [10-E07, 2-chloro-1-[4-(methylsulfanyl)phenyl]ethan-1-one] — lower, 1.88%
- C=CC(=O)N1CCC(C(=O)NCC2COC3(CCCC3)O2)CC1 (centres unmarked) [3-A16, N-({1,4-dioxaspiro[4.4]nonan-2-yl}methyl)-1-(prop-2-enoyl)piperidine-4-carboxamide] — lower, 73.4%
- CNS(=O)(=O)c1cc(NC(=O)CCl)ccc1C [6-M07, 2-chloro-N-[4-methyl-3-(methylsulfamoyl)phenyl]acetamide] — lower, 0.859%
- CC(Cl)C(=O)Nc1ccc(Cc2nnc3ncccn23)cc1 (centres unmarked) [7-O22, 2-chloro-N-[4-({[1,2,4]triazolo[4,3-a]pyrimidin-3-yl}methyl)phenyl]propanamide] — lower, 74.1%
- CCNC(=O)C(C#N)=Cc1ccc(OC(F)F)cc1 [8-E05, 2-cyano-3-[4-(difluoromethoxy)phenyl]-N-ethylprop-2-enamide] — lower, 81.4%
- N#CC(=Cc1ccccc1)C(=O)Nc1ccccc1F [8-C13, 2-cyano-N-(2-fluorophenyl)-3-phenylprop-2-enamide] — lower, 69.6%
- COc1ccccc1NC(=O)C(C)Cl (centres unmarked) [5-L20, 2-chloro-N-(2-methoxyphenyl)propanamide] — lower, 91.3%
- N#CC(=Cc1ccc(-c2ccccc2)cc1)C(=O)N1CCCC1 [9-B08, 3-{[1,1'-biphenyl]-4-yl}-2-(pyrrolidine-1-carbonyl)prop-2-enenitrile] — lower, 71.2%
- CC(C)Cc1ccc(C(C)NC(=O)CCl)cc1 (centres unmarked) [4-H03, 2-chloro-N-{1-[4-(2-methylpropyl)phenyl]ethyl}acetamide] — lower, 0.63%
- O=C(CCl)c1ccc(Cl)c(Cl)c1 [10-L16, 2-chloro-1-(3,4-dichlorophenyl)ethan-1-one] — lower, 31.3%
- CC(Cl)C(=O)NC(Cn1cncn1)c1ccccc1 (centres unmarked) [7-M09, 2-chloro-N-[1-phenyl-2-(1H-1,2,4-triazol-1-yl)ethyl]propanamide] — lower, 90.3%
- C=CC(=O)N1CCC(C(=O)N[C@]2(C(=O)OC)CC[C@@H](C)CC2)CC1 [3-E17, methyl (1r,4r)-4-methyl-1-[1-(prop-2-enoyl)piperidine-4-amido]cyclohexane-1-carboxylate] — lower, 57%
- C=CC(=O)N(CC(C)(C)C)C1CCN(c2ccc(C#N)cn2)CC1 [1-N09, N-[1-(5-cyanopyridin-2-yl)piperidin-4-yl]-N-(2,2-dimethylpropyl)prop-2-enamide] — lower, 105%
- CC(Cl)C(=O)NC(c1ccccc1)c1ccccc1 (centres unmarked) [5-A21, 2-chloro-N-(diphenylmethyl)propanamide] — lower, 85.8%
- CC(Cl)C(=O)N[C@H]1C[C@H](Cn2cncn2)C1 (some centres unmarked) [6-D20, 2-chloro-N-[(1r,3r)-3-[(1H-1,2,4-triazol-1-yl)methyl]cyclobutyl]propanamide] — lower, 105%
- CC(Cl)C(=O)N1CCOCC1c1nc(-c2cccs2)no1 (centres unmarked) [7-B17, 2-chloro-1-{3-[3-(thiophen-2-yl)-1,2,4-oxadiazol-5-yl]morpholin-4-yl}propan-1-one] — lower, 75.7%
- CC(Cl)C(=O)Nc1nc(-c2ccccc2)cs1 (centres unmarked) [6-L10, 2-chloro-N-(4-phenyl-1,3-thiazol-2-yl)propanamide] — lower, 101%
- C=CC(=O)N(Cc1cccc(Cl)c1F)C(C)C1CCOCC1 (centres unmarked) [1-F04, N-[(3-chloro-2-fluorophenyl)methyl]-N-[1-(oxan-4-yl)ethyl]prop-2-enamide] — lower, 58.7%
- Cc1ccsc1CN(C(=O)CCl)C(C)C [7-P03, 2-chloro-N-[(3-methylthiophen-2-yl)methyl]-N-(propan-2-yl)acetamide] — lower, 0.159%
- CC(Cl)C(=O)N(C)C1CCCCC1 (centres unmarked) [5-J04, 2-chloro-N-cyclohexyl-N-methylpropanamide] — lower, 94.1%
- C=CC(=O)NC12CC3CC(CC(C3)C1)C2 [1-E12, N-(adamantan-1-yl)prop-2-enamide] — lower, 56.7%
- CC(Cl)C(=O)N(C)Cc1cn(C)nc1C(F)(F)F (centres unmarked) [7-M04, 2-chloro-N-methyl-N-{[1-methyl-3-(trifluoromethyl)-1H-pyrazol-4-yl]methyl}propanamide] — lower, 91.6%
- C=CC(=O)Nc1ccc(C(=O)NC2CCN(S(C)(=O)=O)CC2)cc1 [2-M21, N-(1-methanesulfonylpiperidin-4-yl)-4-(prop-2-enamido)benzamide] — lower, 90.2%
- Cc1ccc2nc(-c3ccc(NC(=O)CCl)cc3)sc2c1 [6-I05, 2-chloro-N-[4-(6-methyl-1,3-benzothiazol-2-yl)phenyl]acetamide] — lower, 3.47%
- C=CCNC(=O)C(C#N)=Cc1ccc(OC)c(O)c1 [8-E21, 2-cyano-3-(3-hydroxy-4-methoxyphenyl)-N-(prop-2-en-1-yl)prop-2-enamide] — lower, 75.7%
- C=CC(=O)N1CCC(C(=O)N2CCc3ccc([N+](=O)[O-])cc32)CC1 [1-C06, 1-[4-(6-nitro-2,3-dihydro-1H-indole-1-carbonyl)piperidin-1-yl]prop-2-en-1-one] — lower, 49.9%
- N#CC(=Cc1ccc(Sc2ccccc2)o1)C(=O)Nc1ccccc1 [8-K05, 2-cyano-N-phenyl-3-[5-(phenylsulfanyl)furan-2-yl]prop-2-enamide] — lower, 70%
- COc1cc(S(=O)(=O)N2CCOCC2)ccc1NC(=O)CCl [6-L12, 2-chloro-N-[2-methoxy-4-(morpholine-4-sulfonyl)phenyl]acetamide] — lower, 0.942%
